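Cultured in 96-well plates, cells were exposed to test compound for 48 hours across five concentrations. Here, GI50 denotes the concentration required for 50% inhibition of growth. Definition used: TGI = concentration required for complete inhibition of growth.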

We go through nine compounds from PubChem BioAssay (NCI).

Test systems include SK-MEL-28 melanoma; NCI-H460 lung; SNB-75 CNS; UO-31 renal; HCT-15 colon; MCF7 breast; SNB-19 CNS; U251 CNS; M14 melanoma; HCT-116 colon.
What all share (assay): growth of human tumour cells (NCI), 48 h

On to `CCc1ccc2c(c1)C(=O)c1c-2n(CCCN=[N+]=[N-])c(=O)c2cc(OC)c(OC)cc12`, for which the GI50 with SK-MEL-28 melanoma is more than 100 µM; in the assay with NCI-H460 lung, more than 100 µM; in the assay on SNB-75 CNS, more than 100 µM; in the assay on UO-31 renal, more than 100 µM; with HCT-15 colon, more than 100 µM; in the assay on MCF7 breast, 91.7 µM. Also, the GI50 with SNB-19 CNS was more than 100 µM; with U251 CNS it was 47.1 µM; in the assay on M14 melanoma, more than 100 µM. For the same compound, the TGI in the assay with SK-MEL-28 melanoma, with NCI-H460 lung, in the assay with SNB-75 CNS, with UO-31 renal, in the assay with HCT-15 colon and with MCF7 breast was more than 100 µM each time. For the same compound, the TGI in the assay with SNB-19 CNS, in the assay on U251 CNS and in the assay with M14 melanoma was more than 100 µM throughout.
Regarding `O=S(=O)(c1cccc2c(I)cccc12)N1CCCNCC1`, the GI50 in the assay with SK-MEL-28 melanoma was 21.6 µM; in the assay on NCI-H460 lung it was 33.2 µM; with UO-31 renal, 15.6 µM; in the assay on HCT-15 colon, 17.9 µM; in the assay with MCF7 breast, 36.1 µM; in the assay with SNB-19 CNS, 20.9 µM. The GI50 with U251 CNS is 19.6 µM; with HCT-116 colon it was 15.4 µM; in the assay on M14 melanoma, 19.8 µM. The TGI in the assay on SK-MEL-28 melanoma was 44.2 µM; with NCI-H460 lung it was more than 100 µM; in the assay with UO-31 renal it was 34 µM; in the assay with HCT-15 colon it was 34.7 µM; in the assay on MCF7 breast, more than 100 µM; in the assay on SNB-19 CNS, 42.8 µM. For the same compound, the TGI with U251 CNS was determined as 39.1 µM; with HCT-116 colon it was 32.6 µM; in the assay on M14 melanoma, 39.2 µM.
`COc1cc([N+](=O)[O-])c(OC)cc1-c1nc2sccn2c1/C=N/N=C(N)N`: the GI50 in the assay with SK-MEL-28 melanoma is 27.9 µM; with NCI-H460 lung it was 28.3 µM; in the assay with UO-31 renal it was 42.5 µM; with HCT-15 colon, 26.3 µM; with MCF7 breast it was 22 µM; with SNB-19 CNS, 8.52 µM. Besides, the GI50 was 3.66 µM in the assay on U251 CNS, 21.7 µM in the assay on HCT-116 colon and 40.8 µM in the assay on M14 melanoma. Also, the TGI with SK-MEL-28 melanoma is 63.4 µM; in the assay on NCI-H460 lung, more than 100 µM; in the assay with UO-31 renal, more than 100 µM; in the assay with HCT-15 colon it was 72.4 µM; in the assay on MCF7 breast, more than 100 µM; in the assay on SNB-19 CNS, more than 100 µM. In addition, the TGI with U251 CNS is 15 µM; with HCT-116 colon, 94.4 µM; with M14 melanoma, more than 100 µM.
On to `COc1ccc(C(=O)/C=C/c2cccc(Nc3ccnc4cc(Cl)ccc34)c2)cc1`, for which the GI50 in the assay with NCI-H460 lung was 2.23 µM; in the assay on SNB-75 CNS it was 1.51 µM; in the assay with HCT-15 colon, 2.04 µM; in the assay with MCF7 breast, 1.82 µM; in the assay on SNB-19 CNS, 2.26 µM; in the assay with U251 CNS, 1.74 µM. For the same compound, the GI50 in the assay with HCT-116 colon was 0.844 µM; with M14 melanoma, 1.6 µM. Also, the TGI with NCI-H460 lung was more than 100 µM; in the assay with SNB-75 CNS it was 4.12 µM; in the assay with HCT-15 colon it was more than 100 µM; in the assay on MCF7 breast it was more than 100 µM; in the assay on SNB-19 CNS, more than 100 µM; with U251 CNS it was 4.82 µM. Further, the TGI in the assay on HCT-116 colon was 12.2 µM; in the assay on M14 melanoma, more than 100 µM.
With `Oc1c(Cl)c(Cl)c(O)c2c1CCCC2`, the TGI came out at 27.7 µM in the assay on SK-MEL-28 melanoma; 31.9 µM in the assay on NCI-H460 lung; 5.28 µM with UO-31 renal; 29.7 µM in the assay on HCT-15 colon; 4.56 µM with MCF7 breast; 30.5 µM with SNB-19 CNS. Moreover, the results for the TGI in the assay on U251 CNS, in the assay with HCT-116 colon and with M14 melanoma were 42.7 µM, 2.83 µM and 32.5 µM, respectively.
For `O=C1c2ccc3c4c(ccc(c24)C(=O)N1CCCNCc1ccccc1Cl)C(=O)N(CCCNCc1ccccc1Cl)C3=O`, the GI50 in the assay with SK-MEL-28 melanoma was 0.776 µM; with NCI-H460 lung it was 0.212 µM; in the assay with SNB-75 CNS it was 0.716 µM; with HCT-15 colon it was 0.148 µM; in the assay on MCF7 breast it was 0.1 µM; with SNB-19 CNS, 0.314 µM. In addition, the figures for the GI50 in the assay on U251 CNS, with HCT-116 colon and with M14 melanoma were 0.218 µM, 0.126 µM and 0.2 µM, respectively. The TGI in the assay on SK-MEL-28 melanoma was 1.48 µM; in the assay on NCI-H460 lung it was 0.817 µM; in the assay with SNB-75 CNS, 1.47 µM; in the assay with HCT-15 colon it was 0.62 µM; in the assay with MCF7 breast, 0.231 µM; in the assay on SNB-19 CNS, 0.987 µM. Also, the TGI in the assay on U251 CNS worked out at 0.91 µM; in the assay with HCT-116 colon, 0.344 µM; with M14 melanoma, 0.685 µM.
As to `CN1CCc2[nH]nc(-c3n[nH]c4c3CN(C)CC4)c2C1`, the TGI with SK-MEL-28 melanoma, in the assay on NCI-H460 lung, in the assay with UO-31 renal, in the assay on HCT-15 colon, in the assay with MCF7 breast and with SNB-19 CNS was more than 100 µM each time. Further, the TGI with U251 CNS, in the assay with HCT-116 colon and in the assay on M14 melanoma was more than 100 µM throughout.
Turning to `O=[N+]([O-])c1ccc(N=Nc2ccc(O)c3ccccc23)cc1`, the GI50 in the assay with SK-MEL-28 melanoma was 6.59 µM; with NCI-H460 lung, 3.49 µM; in the assay with SNB-75 CNS, 2.45 µM; with UO-31 renal, 5.42 µM; in the assay with HCT-15 colon, 3.29 µM; in the assay on MCF7 breast, 2.42 µM. Besides, the GI50 was 4.76 µM in the assay with SNB-19 CNS, 3.12 µM with U251 CNS and 2.02 µM with HCT-116 colon. Besides, the TGI in the assay with SK-MEL-28 melanoma was more than 100 µM; in the assay with NCI-H460 lung, 27.1 µM; in the assay with SNB-75 CNS it was more than 100 µM; in the assay with UO-31 renal it was more than 100 µM; in the assay on HCT-15 colon it was more than 100 µM; in the assay on MCF7 breast, more than 100 µM. For the same compound, the TGI with SNB-19 CNS is more than 100 µM; in the assay on U251 CNS, 25.8 µM; in the assay on HCT-116 colon, 13.8 µM.
Turning to `COc1cnc2c(c1)C(=O)c1c-2n(CCCNC2=NCCS2)c(=O)c2cc(Cl)ccc12`, the GI50 is 0.0299 µM in the assay with NCI-H460 lung; 1.23 µM in the assay on SNB-75 CNS; 0.163 µM in the assay on UO-31 renal; 1.26 µM in the assay on HCT-15 colon; 0.0366 µM in the assay on MCF7 breast; 0.0546 µM in the assay on U251 CNS. For the same compound, the GI50 with HCT-116 colon is 0.352 µM; in the assay on M14 melanoma it was 0.0829 µM. In addition, the TGI was 1.16 µM in the assay on NCI-H460 lung; 2.51 µM in the assay with SNB-75 CNS; 1.74 µM in the assay on UO-31 renal; 2.67 µM in the assay on HCT-15 colon; 1.32 µM in the assay with MCF7 breast; 1.82 µM in the assay with U251 CNS. For the same compound, the figures for the TGI in the assay with HCT-116 colon and with M14 melanoma were 2.19 µM and 1.81 µM, respectively.
